Like-named read-outs stand apart in the source and are kept apart here.
Columns and labels:
[1] = molecular target: human c-MER catalytic domain (Homo sapiens (Human), UniProt Q12866); experiment: LanthaScreen TR-FRET kinase assay, c-MER
[2] = test system: CD8-MerTK in Ba/F3-CDM cells; experiment: In cell MER kinase assay, Ba/F3-CDM cell proliferation without IL-3 (Celltiter-Glo); format: cell-based, murine; details: 48 hours compound treatment, read-out: Cell growth inhibition (GI50)
Procedure, shortened: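 Ba/F3 cells, IL-3-dependent, transfected with CD8-MerTK and grown without IL-3 in DMEM/10% FBS. IL-3-supplemented Ba/F3 cells run in parallel as a cytotoxicity control.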

[3] = read-out: Mer TK inhibition (IC50), Biochemical IC50, TR-FRET, 10 uM ATP

Sequence of human c-MER catalytic domain (Q12866 587-858): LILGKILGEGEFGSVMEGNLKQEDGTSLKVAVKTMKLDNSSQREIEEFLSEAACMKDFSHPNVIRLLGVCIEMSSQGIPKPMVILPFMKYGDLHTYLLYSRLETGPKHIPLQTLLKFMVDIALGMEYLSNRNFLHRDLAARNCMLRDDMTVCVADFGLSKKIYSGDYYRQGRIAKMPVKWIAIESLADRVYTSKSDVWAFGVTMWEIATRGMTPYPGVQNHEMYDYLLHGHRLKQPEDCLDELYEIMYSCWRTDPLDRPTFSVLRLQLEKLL

Row | IC50 [1] [nM] | SMILES | IC50 [1, 3] [nM] | GI50 [2] [nM]
1 | – | CN1CCN(Cc2ccc(-c3ccc(CO[C@H]4CCC[C@@H]4NC(=O)c4cc(-c5ccc(N6CCN(C)CC6)cc5)cnc4N)cc3)cc2)CC1 [Example 367, 2-amino-N-((1S,2S)-2-((4′-((4-methylpiperazin-1-yl)methyl)-[1,1′-biphenyl]-4-yl)methoxy)cyclopentyl)-5-(4-(4-methylpiperazin-1-yl)phenyl)-nicotinamide] | < 10 | < 100
2 | – | CN1CCN(Cc2ccc(-c3ccc(CO[C@H]4CCC[C@@H]4NC(=O)c4cc(-c5ccc(CN6CCN(C)CC6)cc5)cnc4N)cc3)cc2)CC1 [Example 368] | < 10 | < 100
3 | – | CN1CCN(Cc2ccc(-c3ccc(CO[C@H]4CCC[C@@H]4NC(=O)c4cc(-c5ccc(CO)cc5)cnc4N)cc3)cc2)CC1 [Example 369, 2-amino-5-(4-(hydroxymethyl)phenyl)-N-((1S,2S)-2-((4′-((4-methylpiperazin-1-yl)methyl)-[1,1′-biphenyl]-4-yl)methoxy)cyclopentyl)nicotinamide] | < 10 | < 100
4 | – | Cc1cccc(-c2cnc(N)c(C(=O)N[C@H]3CCC[C@@H]3OCc3ccc(-c4ccc(CN5CCN(C)CC5)cc4)cc3)c2)c1 [Example 370, 2-amino-N-((1S,2S)-2-((4′-((4-methylpiperazin-1-yl)methyl)-[1,1′-biphenyl]-4-yl)methoxy)cyclopentyl)-5-(m-tolyl)nicotinamide] | < 10 | < 100
5 | – | CN1CCN(Cc2ccc(-c3ccc(CO[C@H]4CCC[C@@H]4NC(=O)c4cc(-c5ccccc5)cnc4N)cc3)cc2)CC1 [Example 371, 2-amino-N-((1S,2S)-2-((4′-((4-methylpiperazin-1-yl)methyl)-[1,1′-biphenyl]-4-yl)methoxy)cyclopentyl)-5-phenylnicotinamide] | < 10 | < 100
6 | – | CN1CCN(Cc2ccc(-c3ccc(CO[C@H]4CCC[C@@H]4NC(=O)c4cc(-c5ccc(O)cc5)cnc4N)cc3)cc2)CC1 [Example 372] | < 10 | < 100
7 | – | Cc1cnc(N)c(C(=O)N[C@H]2CCC[C@@H]2OCc2ccc(-c3ccc(CN4CCN(C)CC4)cc3)cc2)c1 [Example 374, 2-amino-5-methyl-N-((1S,2S)-2-((4′-((4-methylpiperazin-1-yl)-methyl)-[1,1′-biphenyl]-4-yl)methoxy)cyclopentyl)nicotinamide] | < 10 | 100 to 500
8 | – | CN1CCN(Cc2ccc(-c3ccc(CO[C@H]4CCC[C@@H]4NC(=O)c4cc(-c5cccnc5)cnc4N)cc3)cc2)CC1 [Example 375, 6-amino-N-((1S,2S)-2-((4′-((4-methylpiperazin-1-yl)methyl)-[1,1′-biphenyl]-4-yl)methoxy)cyclopentyl)-[3,3′-bipyridine]-5-carboxamide] | < 10 | < 100
9 | – | COc1ccc(-c2cnc(N)c(C(=O)N[C@H]3CCC[C@@H]3OCc3ccc(-c4ccc(CN5CCN(C)CC5)cc4)cc3)c2)cc1 [Example 376] | < 10 | < 100
10 | – | CN1CCN(Cc2ccc(-c3ccc(CO[C@H]4CCC[C@@H]4NC(=O)c4cc(-c5ccncc5)cnc4N)cc3)cc2)CC1 [Example 377, 6-amino-N-((1S,2S)-2-((4′-((4-methylpiperazin-1-yl)methyl)-[1,1′-biphenyl]-4-yl)methoxy)cyclopentyl)-[3,4′-bipyridine]-5-carboxamide] | < 10 | < 100
11 | – | CC1CCN(Cc2ccc(-c3cnc(N)c(C(=O)N[C@H]4CCC[C@@H]4OCc4ccc(-c5ccc(CN6CCN(C)CC6)cc5)cc4)c3)cc2)CC1 [Example 378, 2-amino-N-((1S,2S)-2-((4′-((4-methylpiperazin-1-yl)methyl)-[1,1′-biphenyl]-4-yl)methoxy)cyclopentyl)-5-(4-((4-methylpiperidin-1-yl)methyl)phenyl)-nicotinamide] | < 10 | < 100
12 | – | CN1CCN(Cc2ccc(-c3ccc(CO[C@H]4CCC[C@@H]4NC(=O)c4cc(-c5ccc(CN6CCOCC6)cc5)cnc4N)cc3)cc2)CC1 [Example 379, 2-amino-N-((1S,2S)-2-((4′-((4-methylpiperazin-1-yl)methyl)-[1,1′-biphenyl]-4-yl)methoxy)cyclopentyl)-5-(4-(morpholinomethyl)phenyl)nicotinamide] | < 10 | < 100
13 | – | CN1CCN(Cc2ccc(-c3ccc(CO[C@H]4CCC[C@@H]4NC(=O)c4cc(-c5cnn(C6CCOCC6)c5)cnc4N)cc3)cc2)CC1 [Example 380] | < 10 | < 100
14 | – | CN1CCN(Cc2ccc(-c3ccc(CO[C@H]4CCC[C@@H]4NC(=O)c4cc(-c5ccc(N6CCOCC6)cc5)cnc4N)cc3)cc2)CC1 [Example 381, 2-amino-N-((1S,2S)-2-((4′-((4-methylpiperazin-1-yl)methyl)-[1,1′-biphenyl]-4-yl)methoxy)cyclopentyl)-5-(4-morpholinophenyl)nicotinamide] | < 10 | < 100
15 | – | COc1ccc(-c2cnc(N)c(C(=O)N[C@H]3CCC[C@@H]3OCc3ccc(-c4ccc(CN5CCN(C)CC5)cc4)cc3)c2)cc1OC [Example 383, 2-amino-5-(3,4-dimethoxyphenyl)-N-((1S,2S)-2-((4′-((4-methylpiperazin-1-yl)methyl)-[1,1′-biphenyl]-4-yl)methoxy)cyclopentyl)nicotinamide] | < 10 | < 100
16 | – | CN1CCN(Cc2ccc(-c3ccc(CO[C@H]4CCC[C@@H]4NC(=O)c4cc(-c5cc(F)nc(F)c5)cnc4N)cc3)cc2)CC1 [Example 384] | < 10 | < 100
17 | – | Cc1cscc1-c1cnc(N)c(C(=O)N[C@H]2CCC[C@@H]2OCc2ccc(-c3ccc(CN4CCN(C)CC4)cc3)cc2)c1 [Example 385, 2-amino-N-((1S,2S)-2-((4′-((4-methylpiperazin-1-yl)methyl)-[1,1′-biphenyl]-4-yl)methoxy)cyclopentyl)-5-(4-methylthiophen-3-yl)nicotinamide] | < 10 | 100 to 500
18 | – | CN1CCN(Cc2ccc(-c3ccc(CO[C@H]4CCC[C@@H]4NC(=O)c4cc(-c5ccc(F)nc5)cnc4N)cc3)cc2)CC1 [Example 386, 6-amino-6′-fluoro-N-((1S,2S)-2-((4′-((4-methylpiperazin-1-yl)methyl)-[1,1′-biphenyl]-4-yl)methoxy)cyclopentyl)-[3,3′-bipyridine]-5-carboxamide] | < 10 | < 100
19 | – | CN1CCN(Cc2ccc(-c3ccc(CO[C@H]4CCC[C@@H]4NC(=O)c4cc(-c5cnn(C(F)(F)C(F)F)c5)cnc4N)cc3)cc2)CC1 [Example 387] | < 10 | < 100
20 | < 10 | CCc1cc(CO[C@H]2CNC[C@@H]2NC(=O)c2cc(-c3cnn(C)c3)cnc2N)ccc1C [Example 388, 2-amino-N-((3S,4S)-4-((3-ethyl-4-methylbenzyl)oxy)pyrrolidin-3-yl)-5-(1-methyl-1H-pyrazol-4-yl)nicotinamide] | – | 100 to 500
21 | – | CCc1cc(CO[C@H]2CNC[C@@H]2NC(=O)c2cc(-c3ccc(CO)cc3)cnc2N)ccc1C [Example 389, 2-amino-N-((3S,4S)-4-((3-ethyl-4-methylbenzyl)oxy)pyrrolidin-3-yl)-5-(4-(hydroxymethyl)phenyl)nicotinamide] | < 10 | 100 to 500
22 | – | CCc1cc(CO[C@H]2CNC[C@@H]2NC(=O)c2cc(-c3ccc(CN4CCN(C)CC4)cc3)cnc2N)ccc1C [Example 390, 2-amino-N-((3S,4S)-4-((3-ethyl-4-methylbenzyl)oxy)pyrrolidin-3-yl)-5-(4-((4-methylpiperazin-1-yl)methyl)phenyl)nicotinamide] | < 10 | 100 to 500
23 | – | CCc1cc(CO[C@H]2CNC[C@@H]2NC(=O)c2cc(-c3ccc(C(N)=O)cc3)cnc2N)ccc1C [Example 391, 2-amino-5-(4-carbamoylphenyl)-N-((3S,4S)-4-((3-ethyl-4-methylbenzyl)oxy)pyrrolidin-3-yl)nicotinamide] | < 10 | > 1000
24 | – | CCc1cc(CO[C@H]2CNC[C@@H]2NC(=O)c2cc(-c3ccccc3)cnc2N)ccc1C [Example 394, 2-amino-N-((3S,4S)-4-((3-ethyl-4-methylbenzyl)oxy)pyrrolidin-3-yl)-5-phenylnicotinamide] | < 10 | 500 to 1000
25 | – | CCc1cc(CO[C@H]2CNC[C@@H]2NC(=O)c2cc(-c3ccncc3)cnc2N)ccc1C [Example 395, 6-amino-N-((3S,4S)-4-((3-ethyl-4-methylbenzyl)oxy)pyrrolidin-3-yl)-[3,4′-bipyridine]-5-carboxamide] | < 10 | 500 to 1000
26 | – | CCc1cc(CO[C@H]2CNC[C@@H]2NC(=O)c2cc(-c3cccnc3)cnc2N)ccc1C [Example 396, 6-amino-N-((3S,4S)-4-((3-ethyl-4-methylbenzyl)oxy)pyrrolidin-3-yl)-[3,3′-bipyridine]-5-carboxamide] | < 10 | > 1000
27 | < 10 | CCc1cc(CO[C@H]2CNC[C@@H]2NC(=O)c2cc(-c3ccc(C=O)cc3)cnc2N)ccc1C [Example 399, 2-amino-N-((3S,4S)-4-((3-ethyl-4-methylbenzyl)oxy)pyrrolidin-3-yl)-5-(4-formylphenyl)nicotinamide] | – | 500 to 1000
28 | – | CCc1cc(CO[C@H]2CNC[C@@H]2NC(=O)c2cc(-c3ccc(C#N)cc3)cnc2N)ccc1C [Example 400, 2-amino-5-(4-cyanophenyl)-N-((3S,4S)-4-((3-ethyl-4-methylbenzyl)oxy)pyrrolidin-3-yl)nicotinamide] | < 10 | 500 to 1000
29 | – | CCc1cc(CO[C@H]2CNC[C@@H]2NC(=O)c2cc(-c3ccc(NS(C)(=O)=O)cc3)cnc2N)ccc1C [Example 401, 2-amino-N-((3S,4S)-4-((3-ethyl-4-methylbenzyl)oxy)pyrrolidin-3-yl)-5-(4-(methylsulfonamido)phenyl)nicotinamide] | < 10 | > 1000

Reference: US10125118B2, “Heteroaryl compounds and their use as therapeutic drugs” (Dong-A Socio Holdings Co., Ltd., priority 2015, dated 2018)
